The test system of this test is L1210 leukemia ip in BDF1 mice, survival T/C. As to the kind of experiment: NCI In Vivo Anticancer Drug Screen. Data for tumor model L1210 Leukemia (intraperitoneal) in B6D2F1 (BDF1) mice. As to conditions: endpoint: mean survival time, higher = longer survival. In short, it runs like this:
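Mice bearing the transplanted tumor received compound or vehicle. Survival of the treated group was divided by that of the vehicle-treated control group to give the ratio.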

[1] abbreviates: dose: 50.0 mg/kg/injection, schedule: Q01DX009 (ip), vehicle: saline with Tween-80.
The mark [2] stands for this setting: dose: 100.0 mg/kg/injection, schedule: Q01DX009 (ip), vehicle: saline with Tween-80.
Setting [3] is: dose: 100.0 mg/kg/injection, schedule: Q04DX003 (ip), vehicle: saline with Tween-80.
Where [4] appears, read: dose: 200.0 mg/kg/injection, schedule: Q01DX009 (ip), vehicle: saline with Tween-80.
The mark [5] stands for this setting: dose: 200.0 mg/kg/injection, schedule: Q04DX003 (ip), vehicle: saline with Tween-80.
Setting [6] is: dose: 100.0 mg/kg/injection, schedule: Q01DX001 (ip), vehicle: saline.
The mark [7] stands for this setting: dose: 200.0 mg/kg/injection, schedule: Q01DX001 (ip), vehicle: saline.
[8] abbreviates: dose: 400.0 mg/kg/injection, schedule: Q01DX001 (ip), vehicle: saline.
Setting [9] is: dose: 100.0 mg/kg/injection, schedule: Q01DX001 (ip), vehicle: carboxymethylcellulose (CMC).
Setting [10] is: dose: 400.0 mg/kg/injection, schedule: Q01DX009 (ip), vehicle: saline with Tween-80.
[11] abbreviates: dose: 400.0 mg/kg/injection, schedule: Q04DX003 (ip), vehicle: saline with Tween-80.
Setting [12] is: dose: 100.0 mg/kg/injection, schedule: Q04DX003 (ip), vehicle: Klucel (hydroxypropylcellulose) (HPC).
[13] abbreviates: dose: 200.0 mg/kg/injection, schedule: Q04DX003 (ip), vehicle: Klucel (hydroxypropylcellulose) (HPC).
[14] abbreviates: dose: 100.0 mg/kg/injection, schedule: Q01DX009 (ip), vehicle: Klucel (hydroxypropylcellulose) (HPC).
Setting [15] is: dose: 200.0 mg/kg/injection, schedule: Q01DX009 (ip), vehicle: Klucel (hydroxypropylcellulose) (HPC).

Values joined by “and” are separate entries in the source; they are usually repeats but may differ in a detail not shown here. Equal values may be shown once. Toxic doses and inconclusive results are not listed.

Consider `O=C1C(N2CCOCC2)=Cc2cccc3cccc1c23`, for which the T/C under setting [1] is 103 % of control; the T/C under setting [2] is 97 % of control; the T/C under setting [3] was 92 % of control; the T/C under setting [4] is 97 % of control and 90 % of control; the T/C under setting [5] is 97 % of control.
Take `Cc1ccc2[nH]c(=O)oc(=O)c2c1`: the T/C by setting is: under setting [2], 105 % of control; under setting [4], 102 % of control.
Consider `CC1(CO)CCCC2(C)C3=C(CCCC3)CCC12` (stereo not drawn), for which the T/C runs as follows: (dose: 5.0 mg/kg/injection, schedule: Q01DX001 (ip), vehicle: other) 102 % of control; (dose: 10.0 mg/kg/injection, schedule: Q01DX001 (ip), vehicle: other) 96 % of control; (dose: 20.0 mg/kg/injection, schedule: Q01DX001 (ip), vehicle: other) 100 % of control; (dose: 40.0 mg/kg/injection, schedule: Q01DX001 (ip), vehicle: other) 98 % of control; (dose: 80.0 mg/kg/injection, schedule: Q01DX001 (ip), vehicle: other) 98 % of control.
`Clc1ccccc1C[P+](c1ccccc1)(c1ccccc1)c1ccccc1`: the T/C is 92 % of control (dose: 12.5 mg/kg/injection, schedule: Q01DX001 (ip), vehicle: saline); 106 % of control (dose: 25.0 mg/kg/injection, schedule: Q01DX001 (ip), vehicle: saline); 100 % of control (dose: 50.0 mg/kg/injection, schedule: Q01DX001 (ip), vehicle: saline).
As for `CC(C)C(C=O)(CCN1CCCCC1)c1cccc2ccccc12` (stereo not drawn), the T/C was 98 % of control (dose: 25.0 mg/kg/injection, schedule: Q04DX002 (ip), vehicle: saline with Tween-80); 98 % of control (dose: 50.0 mg/kg/injection, schedule: Q04DX002 (ip), vehicle: saline with Tween-80); 88 % of control (dose: 100.0 mg/kg/injection, schedule: Q04DX002 (ip), vehicle: saline with Tween-80).
Consider `CCCN=C(C)c1ccccc1O`, for which the T/C (dose: 100.0 mg/kg/injection, schedule: Q04DX003 (ip), vehicle: acetone) was 97 % of control and the T/C (dose: 200.0 mg/kg/injection, schedule: Q04DX003 (ip), vehicle: acetone) was 95 % of control.
`Cc1ncc(C#N)c(C)n1`: the T/C was 107 % of control under setting [6], 102 % of control under setting [7] and 107 % of control under setting [8].
With `COC1OC2COC(c3ccccc3)OC2C(N=[N+]=[N-])C1O` (stereo not drawn), the T/C was 100 % of control (dose: 100.0 mg/kg/injection, schedule: Q01DX001 (ip), vehicle: gum acacia); 97 % of control (dose: 200.0 mg/kg/injection, schedule: Q01DX001 (ip), vehicle: gum acacia); 92 % of control (dose: 400.0 mg/kg/injection, schedule: Q01DX001 (ip), vehicle: gum acacia).
In the case of `O=C1C=CC(=O)c2cc3ccccc3cc21`, the T/C under setting [9] is 102 % of control.
Regarding `OCC1OC(n2cnc3cncnc32)CC1O` (stereo not drawn), the T/C by setting is: under setting [6], 103 % of control; under setting [7], 97 % of control; under setting [8], 107 % of control.
As for `CSc1nc(=O)[nH]nc1SCc1ccccc1`, the T/C runs as follows: (dose: 22.0 mg/kg/injection, schedule: Q01DX015 (ip), vehicle: carboxymethylcellulose (CMC)) 95 % of control; (dose: 33.0 mg/kg/injection, schedule: Q01DX015 (ip), vehicle: carboxymethylcellulose (CMC)) 95 % of control; (dose: 44.0 mg/kg/injection, schedule: Q01DX001 (ip), vehicle: carboxymethylcellulose (CMC)) 100 % of control and 103 % of control; (dose: 50.0 mg/kg/injection, schedule: Q01DX015 (ip), vehicle: carboxymethylcellulose (CMC)) 92 % of control; (dose: 66.0 mg/kg/injection, schedule: Q01DX001 (ip), vehicle: carboxymethylcellulose (CMC)) 98 % of control and 102 % of control; (dose: 75.0 mg/kg/injection, schedule: Q01DX009 (ip), vehicle: saline) 103 % of control. Also, the T/C is, setting by setting: (dose: 75.0 mg/kg/injection, schedule: Q01DX015 (ip), vehicle: carboxymethylcellulose (CMC)) 87 % of control; under setting [9], 95 % of control and 97 % of control and 284 % of control; under setting [6], 100 % of control; (dose: 150.0 mg/kg/injection, schedule: Q01DX001 (ip), vehicle: carboxymethylcellulose (CMC)) 96 % of control and 89 % of control; (dose: 150.0 mg/kg/injection, schedule: Q01DX009 (ip), vehicle: saline) 95 % of control; under setting [7], 97 % of control. The T/C is 97 % of control (dose: 300.0 mg/kg/injection, schedule: Q01DX009 (ip), vehicle: saline); 160 % of control (dose: 400.0 mg/kg/injection, schedule: Q01DX001 (ip), vehicle: carboxymethylcellulose (CMC)); 95 % of control under setting [8].
For the compound `O=[N+]([O-])/C=C\c1cc(Cl)c(/C=C/[N+](=O)[O-])c(Cl)c1Cl`, the T/C reads like this: (dose: 2.5 mg/kg/injection, schedule: Q01DX009 (ip), vehicle: saline) 88 % of control; (dose: 10.0 mg/kg/injection, schedule: Q01DX001 (ip), vehicle: acetone) 89 % of control; (dose: 10.0 mg/kg/injection, schedule: Q04DX003 (ip), vehicle: acetone) 91 % of control; (dose: 20.0 mg/kg/injection, schedule: Q01DX001 (ip), vehicle: acetone) 94 % of control; (dose: 20.0 mg/kg/injection, schedule: Q04DX003 (ip), vehicle: acetone) 101 % of control.
Consider `CCOc1ccc(NC(=O)CCN2CCC(O)(c3ccccc3)CC2)cc1`, for which the T/C runs as follows: under setting [2], 96 % of control; under setting [3], 103 % of control; under setting [4], 86 % of control; under setting [5], 100 % of control; under setting [10], 91 % of control; under setting [11], 95 % of control.
In the case of `CC1(C)CC(=O)c2c(cc3oc(=O)ccc3c2O)O1`, the T/C under setting [12] is 102 % of control; the T/C under setting [13] was 105 % of control; the T/C (dose: 400.0 mg/kg/injection, schedule: Q04DX003 (ip), vehicle: Klucel (hydroxypropylcellulose) (HPC)) is 98 % of control.
On to `O=C(C[P+](c1ccccc1)(c1ccccc1)c1ccccc1)c1ccc([N+](=O)[O-])cc1`, for which the T/C was 105 % of control under setting [6], 105 % of control under setting [7] and 100 % of control under setting [8].
As for `O=C(O)c1ccccc1C(=O)Nc1cc(Cl)ccc1Cl`, the T/C by setting is: (dose: 50.0 mg/kg/injection, schedule: Q01DX009 (ip), vehicle: Klucel (hydroxypropylcellulose) (HPC)) 94 % of control; under setting [14], 98 % of control; under setting [12], 98 % of control; under setting [15], 93 % of control; under setting [13], 89 % of control.
`C/C=C/CC(C/C=C/C)C1CC[N-]CC1.C/C=C/CC(C/C=C/C)C1CC[N-]CC1.[Cl][Pt+2]([Cl])([Cl])[Cl]`: the T/C runs as follows: (dose: 3.13 mg/kg/injection, schedule: Q01DX009 (ip), vehicle: other) 94 % of control; (dose: 6.25 mg/kg/injection, schedule: Q01DX009 (ip), vehicle: other) 87 % of control; (dose: 12.5 mg/kg/injection, schedule: Q01DX009 (ip), vehicle: other) 105 % of control.
As for `COCC(=O)C(C(C)=O)C(c1ccncc1)C(C(C)=O)C(=O)COC` (stereo not drawn), the T/C is 98 % of control under setting [2], 97 % of control under setting [4] and 93 % of control under setting [10].
Consider `COC1=CC(=O)C(C2CC(=O)c3c(O)cc(O)cc3O2)=CC1=O` (stereo not drawn), for which the T/C is, setting by setting: (dose: 25.0 mg/kg/injection, schedule: Q01DX009 (ip), vehicle: saline with Tween-80) 92 % of control; under setting [1], 98 % of control; under setting [2], 103 % of control.
Regarding `Cc1cccc(C(N)=S)n1`, the T/C is 97 % of control under setting [14] and 93 % of control under setting [15].
As to `NC(=O)C(NC(=O)Nc1ccccc1)C(N)=O`, the T/C reads like this: (dose: 12.5 mg/kg/injection, schedule: Q04DX003 (ip), vehicle: gum acacia) 100 % of control; (dose: 25.0 mg/kg/injection, schedule: Q04DX003 (ip), vehicle: gum acacia) 97 % of control; (dose: 50.0 mg/kg/injection, schedule: Q04DX003 (ip), vehicle: gum acacia) 92 % of control; (dose: 100.0 mg/kg/injection, schedule: Q04DX003 (ip), vehicle: gum acacia) 98 % of control.
As to `O=[N+]([O-])c1ccc2ncsc2c1`, the T/C reads like this: under setting [2], 98 % of control; under setting [3], 112 % of control; under setting [4], 98 % of control; under setting [5], 102 % of control; under setting [10], 98 % of control; under setting [11], 104 % of control.

Source of the values: PubChem BioAssay AID248 (DTP/NCI, 2004).
